In data set [1] the test system is integrin VLA-4 on U937 FPRΔST cells. Details: method as in PMID 23382385. To be noted: cited from earlier work.
In a further data set the target is H-Ras G12V (Homo sapiens, UniProt P01112, G12V). Nature of the data set: Multiplex bead-based flow cytometry dose-response of fluorescent guanine nucleotide binding. To be noted: read-out: EC50 H-Ras G12V; BODIPY-FL GTP binding; 2 h at 4°C. A general note: Flow cytometry measures light scatter and fluorescence of single cells or particles in a stream.
Another data set deals with Cdc42 Q61L (Homo sapiens, UniProt P60953, Q61L). Described as above. To be noted: read-out: EC50 Cdc42 Q61L; BODIPY-FL GTP binding; 2 h at 4°C.
The target of another data set is H-Ras (Homo sapiens, UniProt P01112). The description is as above. To be noted: read-out: EC50 H-Ras; BODIPY-FL GTP binding; 2 h at 4°C.
For data set [2], the system named is GTPases (H-Ras, H-Ras G12V, Cdc42, Cdc42 Q61L, Rac1, Rac1 Q61L, RhoA, Rab7). The experiment in a line: Multiplex dose-response assay, statements across the GTPase panel. To be noted: for inhibitory activity on BODIPY-FL GTP binding across all GTPases tested (in words): SAR versus compound 1.
Procedure: Briefly, individual GST-GTPases were separately attached to glutathione microsphere beads that were labeled with varying intensity of red fluorescent dye, and subsequently combined. The buffer contains 30 mM HEPES (pH 7.2), 150 mM KCl, 20 mM NaCl, 0.1% BSA, 1 mM DTT, 1 mM EDTA and 0.1% NP-40. For Rho A and Rac1, 1 mM EDTA was replaced with 1 mM MgCl2 to stabilize the protein. […] To study whether the compounds are slow binders, BODIPY^- FL GTP was added either immediately or 2 h after compound addition. […] The curves were fitted to the sigmoidal dose-response equation using GraphPad Prism. Percent response was calculated as the ratio of (sample MCF–negative control MCF) / (positive control MCF–negative control MCF).
The target in the next data set is Cdc42 (Homo sapiens, UniProt P60953). The experiment in a line: Multiplex bead-based flow cytometry dose-response of fluorescent guanine nucleotide binding. To be noted: read-out: EC50 Cdc42; BODIPY-FL GTP binding; 2 h at 4°C.
A further data set concerns the target Rab7 (Canis lupus familiaris, UniProt P18067). Described as above. To be noted: read-out: EC50 Rab7; BODIPY-FL GTP binding; 2 h at 4°C.
For the next data set, the target named is Rac1 (Homo sapiens, UniProt P63000). The description is as above. To be noted: read-out: EC50 Rac1; BODIPY-FL GTP binding; 2 h at 4°C; 1 mM MgCl2.
A further data set deals with Rac1 Q61L (Homo sapiens, UniProt P63000, Q61L). The description is as above. To be noted: read-out: EC50 Rac1 Q61L; BODIPY-FL GTP binding; 2 h at 4°C.
A further data set concerns the target RhoA (Homo sapiens, UniProt P61586). Described as above. To be noted: read-out: EC50 RhoA; BODIPY-FL GTP binding; 2 h at 4°C; 1 mM MgCl2.
For data set [3], the system named is integrin VLA-4 on U937 FPRΔST cells. Nature of the data set: Integrin activation assay (LDV-FITC binding). It is filed as cell-based. To be noted: LDV-FITC 4 nM, fMLFF 100 nM. The method, then:
The procedure followed the protocols described previously. U937 FPRΔST cells (0.4~0.8 x 10^6 cells/mL) were continuously stirred with a magnetic stir bar at 500 rpm in a test tube. The fluorescence was recorded on a FACScan flow cytometer. The baseline fluorescence of the cells was established for 30 s. Then LDV-FITC at 4 nM was added. After the fluorescence stabilized at ~120 s, the chemotactic ligand fMLFF at 100 nM was added for stimulation. […] All the concentrations given were the final concentrations. The percent inhibition was calculated according to Equation 1 (Supporting Information).

Data set [4] is described as follows: Solubility in PBS and assay media. The format is physicochemical. The method, then: page 7: conclusion, the available data support the idea that compound CID1067700 has non-classical competitive character. […] Solubility was measured in phosphate buffered saline (PBS) at room temperature (23 °C). PBS by definition is 137 mM NaCl, 2.7 mM KCl, 10 mM sodium phosphate dibasic, 2 mM potassium phosphate [monobasic and a pH of 7.4. Detection was based on UV absorbance. […] Solubility was also assessed in the each of the four media used in the individual assays. […] Table 1S. […] Stability, depicted as closed circles in the graph, was assessed at room temperature (23 °C) in PBS (no antioxidants or other protectants and DMSO concentration below 0.1%). Stability data is depicted in Fig. S8 showing the loss of compound with time over a 48 h period with a minimum of 6 time points and providing the percent remaining compound at end of the 48 h period. Under these conditions, 77% of 1 remains after 48 hours. The degradation has not been further characterized.

[5] abbreviates: 30mM HEPES, pH 7.5, 100mM KCl, 20mM NaCl, 0.01% (v/v) NP-40.
The mark [6] stands for this setting: 30mM HEPES, pH 7.5, 100mM KCl, 20mM NaCl, 0.01% (v/v) NP-40, read-out: Solubility, Dose Response-buffer.
[7] abbreviates: DMEM/F-12, read-out: Solubility, EGFR degradation assay medium.
The mark [8] stands for this setting: RPMI 1640 + 10% HI-FBS, read-out: Solubility, LDV-FITC assay buffer.

This is an account of results in paper PMC4527730, “A Pan-GTPase Inhibitor as a Molecular Probe” (PLoS ONE, 2015).

In brackets after ≈: the same amount, converted by molar mass. Read-outs that look alike come from different tables or passages of the source.

Broadly, the EC50 is the midpoint of the concentration-response curve. Broadly, the solubility is the dissolved amount per volume that the medium holds.

Chain of H-Ras G12V (P01112 whole entry G12V): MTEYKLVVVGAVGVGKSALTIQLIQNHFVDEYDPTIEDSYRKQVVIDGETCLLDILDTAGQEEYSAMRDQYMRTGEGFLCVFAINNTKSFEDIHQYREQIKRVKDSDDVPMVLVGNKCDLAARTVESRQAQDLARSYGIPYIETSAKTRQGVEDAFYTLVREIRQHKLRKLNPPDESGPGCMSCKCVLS
Chain of RhoA (P61586 whole entry): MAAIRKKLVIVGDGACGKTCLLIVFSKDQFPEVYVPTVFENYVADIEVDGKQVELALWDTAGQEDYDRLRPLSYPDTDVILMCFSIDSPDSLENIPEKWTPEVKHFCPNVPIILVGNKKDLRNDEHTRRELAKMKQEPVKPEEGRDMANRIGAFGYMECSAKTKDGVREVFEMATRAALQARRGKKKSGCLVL
Chain of Cdc42 (P60953 whole entry): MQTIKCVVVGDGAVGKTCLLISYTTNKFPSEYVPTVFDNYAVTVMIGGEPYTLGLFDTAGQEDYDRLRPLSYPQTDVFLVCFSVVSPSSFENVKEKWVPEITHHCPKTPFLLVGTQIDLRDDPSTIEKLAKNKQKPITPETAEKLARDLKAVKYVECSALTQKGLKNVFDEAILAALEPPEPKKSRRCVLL
Chain of Rab7 (P18067 2-207 limits assumed): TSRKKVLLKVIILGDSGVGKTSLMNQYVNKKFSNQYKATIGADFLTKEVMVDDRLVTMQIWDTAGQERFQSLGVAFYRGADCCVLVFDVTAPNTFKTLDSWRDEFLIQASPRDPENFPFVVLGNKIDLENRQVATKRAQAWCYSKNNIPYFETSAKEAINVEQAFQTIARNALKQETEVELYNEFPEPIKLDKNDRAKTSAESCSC
Chain of H-Ras (P01112 whole entry): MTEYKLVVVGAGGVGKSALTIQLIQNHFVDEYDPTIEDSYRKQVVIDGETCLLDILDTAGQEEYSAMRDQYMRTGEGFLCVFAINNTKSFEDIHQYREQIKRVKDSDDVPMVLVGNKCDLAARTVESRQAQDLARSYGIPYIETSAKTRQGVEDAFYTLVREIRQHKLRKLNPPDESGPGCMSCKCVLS
Chain of Cdc42 Q61L (P60953 whole entry Q61L): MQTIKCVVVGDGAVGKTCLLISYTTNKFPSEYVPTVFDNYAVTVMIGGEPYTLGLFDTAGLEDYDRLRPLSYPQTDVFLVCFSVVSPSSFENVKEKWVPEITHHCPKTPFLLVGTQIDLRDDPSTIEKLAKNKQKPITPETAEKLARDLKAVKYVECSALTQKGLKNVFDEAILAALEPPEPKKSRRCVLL

As for `COc1ccc(C2CC(c3ccccc3)=NN2c2ccc(S(N)(=O)=O)cc2)cc1` (stereo not drawn) [CID2950007], the integrin activation entry in data set [1] is listed as “decrease the integrin activation in a dose-dependent fashion”.

Consider `COC(=O)c1c(NC(=S)NC(=O)c2ccccc2)sc2c1CC(C)(C)OC2` [Compound 2], for which the EC50 on H-Ras G12V, at Cdc42 Q61L, on H-Ras, on Cdc42 and on Rab7 was above 1000 µM each time. For the same compound, the “inhibitory activity on BODIPY-FL GTP binding across all GTPases tested (in words)” value (shortened to “inhibitory activity”) in data set [2] is given as “loss of activity”.

Regarding `O=C(NC(=S)Nc1sc2c(c1C(=O)O)CCOC2)c1ccccc1` [Compound 3], the EC50 at Rac1 worked out at 0.18 ± 0.13 µM; at H-Ras G12V it was 0.12 ± 0.12 µM; at Cdc42 Q61L, 0.13 ± 0.078 µM; on H-Ras, 0.17 ± 0.094 µM; on Rac1 Q61L, 0.23 ± 0.22 µM; at RhoA it was 0.23 ± 0.21 µM. Besides, the EC50 at Cdc42 amounted to 0.11 ± 0.064 µM. Besides, in data set [2], the “inhibitory activity” value is reported as “did not cause a significant change in potency”. For the same compound, in [3], the “integrin VLA-4 activation (LDV-FITC binding after fMLFF)” value is “dose-dependently blocked integrin activation”.

Consider `CC1(C)Cc2c(sc(NC(=O)Cc3ccccc3)c2C(=O)O)CO1` [Compound 4], for which the EC50 at H-Ras G12V, on Cdc42 Q61L, at H-Ras, at Cdc42 and at Rab7 was above 1000 µM each time. In addition, in data set [2], the “inhibitory activity” value was “inactive”.

For `CC1(C)Cc2c(sc(NC(=S)Nc3ccccc3)c2C(=O)O)CO1` [Compound 5], in data set [2], the “inhibitory activity” value was “inactive”.

As for `CC1(C)Cc2c(sc(NC(=O)NC(=O)c3ccccc3)c2C(=O)O)CO1` [Compound 6], the EC50 on Rac1 came to 0.35 ± 0.05 µM; on H-Ras G12V it was 0.49 ± 0.48 µM; on Cdc42 Q61L, 0.47 µM; on H-Ras, 0.44 ± 0.41 µM; at Rac1 Q61L, 0.4 ± 0.02 µM; at RhoA, 0.33 ± 0.03 µM. Moreover, the EC50 at Cdc42 is 17 µM; on Rab7, 0.31 ± 0.09 µM. Also, the “loss in potency across all the GTPases” value in data set [2] (versus compound 1) was “more than 2 fold”.

In the case of `COc1cccc(C(=O)NC(=S)Nc2sc3c(c2C(=O)O)CC(C)(C)OC3)c1` [Compound 7], the EC50 at Rac1 was 0.19 ± 0.06 µM; at H-Ras G12V, 0.12 ± 0.12 µM; at Cdc42 Q61L, 0.5 ± 0.71 µM; on H-Ras it was 0.13 ± 0.13 µM; at Rac1 Q61L, 0.22 ± 0.14 µM; on RhoA it was 0.2 ± 0.13 µM. The figures for the EC50 at Cdc42 and on Rab7 were 0.58 ± 0.83 µM and 0.15 ± 0.13 µM, respectively. Besides, in data set [4] (setting [5]), the “Solubility, Dose Response-buffer” value is above 29.7 µg/mL. Also, the solubility in [4] (setting [6]) is given as above 70.6 µM; in data set [4] (setting [7]) it was 129.6 µM (≈ 54.5 µg/mL); in data set [4] (setting [8]), above 197.4 µM. In addition, the “Solubility, EGFR degradation assay medium” value in [4] (DMEM/F-12) is recorded as 54.5 µg/mL (≈ 130 µM). Further, in data set [4] (RPMI 1640 + 10% HI-FBS), the “Solubility, LDV-FITC assay buffer” value was above 83 µg/mL.

In the case of `CC1(C)Cc2c(sc(NC(=S)NC(=O)c3ccc(F)cc3)c2C(=O)O)CO1` [Compound 9], the EC50 at Rac1 came to 0.15 µM; at H-Ras G12V, 0.091 µM; on Cdc42 Q61L, 0.88 ± 0.47 µM; on H-Ras, 0.33 ± 0.22 µM; on Rac1 Q61L it was 0.13 µM; at RhoA, 0.11 µM. Also, the EC50 on Cdc42 is 1 ± 1.2 µM; at Rab7, 0.41 ± 0.19 µM. For the same compound, the “Solubility, Dose Response-buffer” value in data set [4] (setting [5]) was above 69.1 µg/mL. In addition, the “Solubility, EGFR degradation assay medium” value in [4] (DMEM/F-12) is listed as 67.6 µg/mL (≈ 165 µM). Moreover, the values for the solubility in [4] (setting [7]) and in [4] (setting [8]) were 165.5 µM (≈ 67.6 µg/mL) and 282.3 µM, respectively. The “Solubility, LDV-FITC assay buffer” value in data set [4] (RPMI 1640 + 10% HI-FBS) came out at 115.3 µg/mL.

Take `CC1(C)Cc2c(sc(NC(=S)NC(=O)c3ccccc3Br)c2C(=O)O)CO1` [Compound 10]: the EC50 at Rac1 was 0.6 ± 0.8 µM; at H-Ras G12V, 0.43 ± 0.68 µM; on Cdc42 Q61L, 14.8 ± 20.8 µM; at H-Ras it was 0.62 ± 1 µM; on Rac1 Q61L, 0.42 ± 0.65 µM; at RhoA, 0.48 ± 0.74 µM. For the same compound, the results for the EC50 at Cdc42 and at Rab7 were 46.8 ± 66 µM and 0.43 ± 0.68 µM, respectively. The “Solubility, Dose Response-buffer” value in [4] (setting [5]) was above 93 µg/mL. Moreover, the solubility in [4] (setting [6]), in data set [4] (setting [7]) and in data set [4] (setting [8]) was above 198 µM throughout. Moreover, the “Solubility, EGFR degradation assay medium” value in [4] (DMEM/F-12) is on record as above 93 µg/mL. Further, the “Solubility, LDV-FITC assay buffer” value in data set [4] (RPMI 1640 + 10% HI-FBS) is recorded as above 93 µg/mL.

In the case of `CC1(C)Cc2c(sc(NC(=S)NC(=O)c3ccc(Br)cc3)c2C(=O)O)CO1` [Compound 12], the EC50 on Rac1 came out at 0.26 ± 0.11 µM; at H-Ras G12V it was 0.32 ± 0.22 µM; at Cdc42 Q61L, 10.9 ± 18.4 µM; at H-Ras it was 0.33 ± 0.24 µM; at Rac1 Q61L, 0.28 ± 0.15 µM; at RhoA it was 0.32 ± 0.13 µM. The EC50 at Cdc42 was determined as 25.9 ± 44.1 µM; at Rab7, 0.3 ± 0.18 µM.
